From patent US8748369B2, “Use of targeted nitroxide agents in bone healing” (University of Pittsburgh-Of the Commonwealth System of …, priority 2009, dated 2014)
Where “and” joins values, the source holds several entries; their conditions need not be identical. Equal values may be shown once. Where a SMILES comes first, the peptide text is derived from it. [ ]: non-standard residue; d: D form. The star is where a group is joined. NH(TEMPO-4-yl) = CC1(C)CC(N*)CC(C)(C)N1[O]; Orn = NCCC[C@H](N)C(=O)O; Cbz = O=C(OCc1ccccc1)*; Boc = CC(C)(C)OC(=O)*

Tests used:
[1] = tested on: C57BL/6NHsd mice, tibial bone wounds; assay: Unicortical tibial bone wound healing with or without 20 Gy limb irradiation; type: in vivo, mouse
[2] = tested on: mice exposed to total body irradiation; assay: Survival of mice after total body irradiation; type: in vivo, mouse
Protocol: Mice received intraperitoneal injection of 10 mg. per kilogram of each of the chemicals indicated in FIG. 5, then 24 hours later received 9.75 Gy total body irradiation according to published methods. Mice were followed for survival according to IACUC regulations. […] (P=0.0008).
Groups of 15 mice received intraperitoneal injection of 10 mg. per kilogram of each indicated GS-nitroxide compound or carrier (Cremphora plus alcohol at 1 to 1 ratio, then diluted 1 to 10 in distilled water). Mice received 10 mg per kilogram intra-peritoneal injection 24 hours prior to total body irradiation. Control mice received radiation alone. […] (P=0.0005)

Solubility in water = type: physicochemical
Description: All compositions are sterile filtered (e.g.) using a 0.2 micron filter (non sterile). • A. 0.1% DMSO 99.9% and RMPI 1640. Comments: with the low water solubility of JP4-039, DMSO is used in vitro experiments since it is a universal solvent which has been used in radiation biology experiments without any toxic effects. • B. 10% CrEL(Cremophor EL), 10% ethanol and 80% DI water. […] This formula dissolves the JP4-039. • C. Suspension of JP4-039 in F14 emulsion: Comments: F14 is a mixture of sesame oil, egg-phosphatidyl choline, Tween 80, and Span85 at ratios of 1:0.5:0.25:0.25 w/w, respectively. […] Comments: Sesame Seed Oil (100 mg/ml), Soy Phosphatidyl […] (50 mg/ml), JP4-039 (2 mg/ml), and Phosphate Buffered Saline. • Low dose (JP4-039): 5 mg/kg, 0.5 mg/ml. • Medium dose (JP4-039): 10 mg.kg, 1.0 mg/ml. • High dose (JP4-039): 20 mg/kg, 2.0 mg/ml. • Placebo/Vehicle (JP4-039): 0 mg/kg, 0 ing/ml • Exemplary dose (mouse): 200 μl of volume • E. JP4-039 dissolved in a solution of 45% 2-hydroxypropyl-β-cyclodextrin and 55% water. Comments: Cyclodextrins have a hydrophobic interior which compounds such as JP4-039 can complex in a rapid and reversible reaction. P-cyclodextrins have a cavity with an inner diameter of approximately 7.5 Å which is well suited for JP4-039.

[3] = tested on: mouse embryonic cells, mitochondria; assay: EPR-based analysis of integration and distribution of nitroxides (Example 9); type: cell-based; conditions: 10 μM nitroxides for 10 min
Protocol: To compare the integration efficiency, mouse embryonic cells (1×10^7/mL) were incubated with 10 μM nitroxides for 10 min. ESR spectra of nitroxide radicals in the incubation medium, cell suspension or mitochondrial suspension were recorded after mixing with acetonitrile (1:1 v/v) after 5-min incubation with 2 mM K3Fe(CN)6 using JEOL-RE1X EPR spectrometer under the following conditions: 3350 G center field; 25 G scan range; 0.79 G field modulation, 20 mW microwave power; 0.1 s time constant; 4 min scan time. Integration efficiency was calculated as (Einitial−Emedium)/Einitial×100%. Mitochondria were isolated using a mitochondria isolation kit (Pierce, Rockford, Ill.) according to the manufacturer's instruction. Amounts of nitroxide radicals integrated into mitochondria were normalized to the content of cytochrome c oxidase subunit IV.

[4] = tested on: 32D cl 3 murine hematopoietic cells; assay: Irradiation survival curves of 32D cl 3 cells; type: cell-based, mouse; conditions: cells incubated in compound
Protocol: FIG. 16 illustrates the effect of GS conjugated nitroxide, XJB-5-125, on gamma-irradiation dose survival curves of 32D cl 3 murine hematopoietic cells.
Irradiation survival curves were performed on cells from the 32D cl 3 mouse hematopoietic progenitor cell line, incubated in 10 μM JP4-039 for 1 hour before irradiation, or plated in methycellulose containing 10 μM JP4-030 after irradiation. Cells were irradiated from 0 to 8 Gy, plated in 0.8% methycellulose containing media, and incubated for 7 days at 37° C. Colonies of greater than 50 cells were counted and data analyzed by linear quadratic and single-hit, multi-target models.

mouse embryonic cells = assay: Gamma-irradiation dose survival curves of mouse embryonic cells; type: cell-based; conditions: 20 μM pre- (10-min) or post-treated (1-h)
Protocol: Cells were plated in 35-mm Petri dishes with 2 ml culture medium at a density between 100 and 1000 cells per dish. Cells were treated with GS-nitroxide (XJB-5-125) either before (10-min) or after (1-h) γ-irradiation. XJB-5-125 was removed from the medium 4-h post-irradiation. Colonies were fixed and stained with 0.25% crystal violet and 10% formalin (35% v/v) in 80% methanol for 30 min after a 9-day incubation period, and those of ≧50 cells were counted as survivors. The surviving fraction was calculated as the plating efficiency of the samples relative to that of the control.
Cells were pre- (10-min) or post-treated (1-h) with XJB-5-125 (20 μM), which was removed after 4-h incubation period. The surviving fraction was calculated as the plating efficiency of the samples relative to that of the control. The data was fitted to a single-hit multitarget model using SigmaPlot 9.0 (Systat Software). Data presented are the mean±S.E. (n=3).

CC(C)C[C@@H](/C=C/CC(=O)NC1CC(C)(C)N([O])C(C)(C)C1)NC(=O)OC(C)(C)C [JP4-039, (S,E)-5-(tert-Butoxycarbonylamino)-7-methyloct-3-enoic acid-TEMPO]
bone wound healing in the absence of RT ([1]; 0 Gy): conferred more rapid healing
Hole Diameter, mean ± SEM ([1]; 0 Gy, Day 7 post-drilling): 1.02 ± 0.07 mm
Hole Diameter, mean ± SEM ([1]; 0 Gy, Day 14 post-drilling): 0.6±0.05 mm and 0.55±0.03 mm
Hole Diameter, mean ± SEM ([1]; 0 Gy, Day 21 post-drilling): 0.47 ± 0.04 mm
Hole Diameter, mean ± SEM ([1]; 0 Gy, Day 28 post-drilling): 0.23 ± 0.04 mm
Hole Diameter, mean ± SEM ([1]; 20 Gy, Day 7 post-drilling): 1.14 ± 0.04 mm
Hole Diameter, mean ± SEM ([1]; 20 Gy, Day 14 post-drilling): 0.92 ± 0.08 mm
Hole Diameter, mean ± SEM ([1]; 20 Gy, Day 21 post-drilling): 0.5±0.05 mm and 0.51±0.05 mm
Hole Diameter, mean ± SEM ([1]; 20 Gy, Day 28 post-drilling): 0.4±0.04 mm and 0.37±0.04 mm
RT-induced delay in osseus wound healing ([1]; given prior to 20 Gy RT): ameliorated this RT-induced delay
histology: bone fill of wounds versus irradiated mice ([1]; pre-treated prior to irradiation): more bone fill
survival of mice exposed to 9.75 Gy total body irradiation ([2]; 10 mg per kilogram intraperitoneal 24 hours before irradiation): significant increase in survival
survival of mice exposed to 9.5 Gy total body irradiation ([2]; 10 mg per kilogram intraperitoneal 24 hours prior to irradiation): increases survival
solubility in water (Solubility in water): low solubility in water

CC(C)C[C@H](NC(=O)OC(C)(C)C)C(=O)N[C@H](Cc1ccccc1)C(=O)N1CCC[C@H]1C(=O)N[C@H](C(=O)N[C@@H](CCCNC(=O)OCc1ccccc1)C(=O)NC1CC(C)(C)N([O])C(C)(C)C1)C(C)C [XJB-5-125] (Boc-L[dF]PV[Orn](Cbz)-{NH(TEMPO-4-yl)})
integration into cells and mitochondria compared with non-conjugated 4-amino-TEMPO [3]: much more efficiently
Do of gamma-irradiation survival curve [4]: 1.138 Gy
n (shoulder on the survival curve) [4]: 18.24
radiation mitigation and protection (FIG. 15 survival curves) (mouse embryonic cells): radiation mitigator as well as a protector
